These results are taken from patent publication US20240116985A1, “STAPLED PEPTIDES AND METHODS THEREOF” (priority 2020, published 2024).

SMILES strings stand for the structures.

For experiment [1], the target named is T1, beta-catenin/TCF4 engagement (Homo sapiens, UniProt P35222).
T1 construct: expressed in transfected cells; host or cells: HEK293
T1 sequence (P35222 1-781): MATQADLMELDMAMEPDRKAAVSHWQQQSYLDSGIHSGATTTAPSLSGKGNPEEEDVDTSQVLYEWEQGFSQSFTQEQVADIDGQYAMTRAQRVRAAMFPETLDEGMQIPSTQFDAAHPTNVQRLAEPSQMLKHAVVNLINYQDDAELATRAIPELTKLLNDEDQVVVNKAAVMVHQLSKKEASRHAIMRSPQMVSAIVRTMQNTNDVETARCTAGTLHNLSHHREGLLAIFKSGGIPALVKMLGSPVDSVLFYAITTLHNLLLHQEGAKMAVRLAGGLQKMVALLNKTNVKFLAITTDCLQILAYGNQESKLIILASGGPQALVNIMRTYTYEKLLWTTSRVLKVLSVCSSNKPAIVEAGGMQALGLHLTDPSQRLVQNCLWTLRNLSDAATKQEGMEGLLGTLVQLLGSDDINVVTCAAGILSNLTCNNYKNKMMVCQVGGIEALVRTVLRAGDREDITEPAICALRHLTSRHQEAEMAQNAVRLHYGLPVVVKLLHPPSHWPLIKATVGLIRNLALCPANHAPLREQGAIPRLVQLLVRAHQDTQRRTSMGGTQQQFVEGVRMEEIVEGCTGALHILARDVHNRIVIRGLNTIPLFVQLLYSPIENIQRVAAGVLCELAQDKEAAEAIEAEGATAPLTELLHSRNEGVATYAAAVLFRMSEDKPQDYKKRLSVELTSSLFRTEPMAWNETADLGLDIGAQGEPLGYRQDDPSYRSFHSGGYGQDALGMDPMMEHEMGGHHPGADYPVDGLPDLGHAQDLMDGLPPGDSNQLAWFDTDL
In words: Nano-BRET target engagement assay (B-cat-Halo & TCF4-Luc in HEK293 cells). It counts as cell-based. The note with it: absolute IC50; read-out: NanoBRET Abs IC50. For orientation: BRET reads energy transfer from a luciferase to a nearby fluorophore.

In experiment [2] the target is T2, full-length beta-Catenin (Uniprot ID P35222) (Homo sapiens, UniProt P35222).
T2 construct: 10 nM full-length beta-Catenin (Uniprot ID P35222)
T2 sequence (P35222 1-781): T1 sequence (P35222 1-781)
In words: Fluorescence polarization IC50 (beta-catenin / 5FAM-TCF4 10-53 competition). The experiment is classed as binding. The following applies: fluorescence polarization; read-out: beta-Catenin FP IC50. In general terms: Polarisation of emitted light reports the rotation of a fluorescent probe.

Regarding `CC(=O)N1CCC[C@]12CC=CCCCC1(CCCC=CCCCOC(=O)N3CC[C@@](C(=O)N[C@@H](Cc4ccsc4)C(=O)N[C@@H](Cc4csc5ccccc45)C(=O)N[C@@H](CCC(N)=O)C(N)=O)(C3)NC(=O)[C@H](CC(C)C)NC(=O)[C@H](Cc3ccccc3)NC(=O)[C@H](C)NC(=O)[C@H](C)NC(=O)[C@H](CNCC(=O)O)NC(=O)[C@H](CC(=O)O)NC1=O)NC(=O)[C@H](CC(C)(C)C)NC(=O)[C@H](CC(=O)O)NC2=O` (stereo partly drawn) [I-1731, Ac-PL3-Asp-Npg-B5-Asp-GA-Ala-Ala-Phe-Leu-PyrS2-3Thi-BztA-Gln-NH2], the IC50 in experiment [1] worked out at 29500 nM; in experiment [2], 25 nM.

For the compound `CC(=O)N1CCC[C@]12CC=CCCCC1(CCCC=CCCCOC(=O)N3CC[C@@](C(=O)N[C@@H](Cc4ccsc4)C(=O)N[C@@H](Cc4csc5ccccc45)C(=O)N[C@@H](CCC(N)=O)C(N)=O)(C3)NC(=O)[C@H](CC(N)=O)NC(=O)[C@H](Cc3ccccc3)NC(=O)[C@H](C)NC(=O)[C@H](C)NC(=O)[C@H](CNCC(=O)O)NC(=O)[C@H](CC(=O)O)NC1=O)NC(=O)[C@H](CC(C)(C)C)NC(=O)[C@H](CC(=O)O)NC2=O` (stereo partly drawn) [I-1732, Ac-PL3-Asp-Npg-B5-Asp-GA-Ala-Ala-Phe-Asn-PyrS2-3Thi-BztA-Gln-NH2], the IC50 is over 20000 nM in experiment [1] and 11 nM in experiment [2].

`CC(=O)N1CCC[C@]12CC=CCCCC1(CCCC=CCCCOC(=O)N3CC[C@@](C(=O)N[C@@H](Cc4ccsc4)C(=O)N[C@@H](Cc4csc5ccccc45)C(=O)N[C@@H](CCC(N)=O)C(N)=O)(C3)NC(=O)[C@H](CC(N)=O)NC(=O)[C@H](Cc3ccccc3)NC(=O)[C@H](C)NC(=O)[C@H](C)NC(=O)[C@H](CNCC(=O)O)NC(=O)[C@H](CC(=O)O)NC1=O)NC(=O)[C@H](CC(C)(C)C)NC(=O)[C@H](CC(=O)O)NC2=O` (stereo partly drawn) [I-1733, Ac-PL3-Asp-Npg-B5-Asp-GA-Ala-Ala-Phe-Asn-PyrS2-3Thi-BztA-Gln-NH2]: the concentration for half-maximal inhibition (IC50) is over 20000 nM in experiment [1] and 15 nM in experiment [2].

With `CC(=O)N1CCC[C@]12CC=CCCCC1(CCCC=CCCCOC(=O)N3CC[C@@](C(=O)N[C@@H](Cc4ccsc4)C(=O)N[C@@H](Cc4csc5ccccc45)C(=O)N[C@@H](CC(C)C)C(N)=O)(C3)NC(=O)[C@H](CC(C)C)NC(=O)[C@H](Cc3ccccc3)NC(=O)[C@H](C)NC(=O)[C@H](C)NC(=O)[C@H](CN(CC(=O)O)CC(F)(F)F)NC(=O)[C@H](CC(=O)O)NC1=O)NC(=O)[C@H](CC(C)(C)C)NC(=O)[C@H](CC(=O)O)NC2=O` (stereo partly drawn) [I-1747, Ac-PL3-Asp-Npg-B5-Asp-TfeGA-Ala-Ala-Phe-Leu-PyrS2-3Thi-BztA-Leu-NH2], the IC50 in experiment [1] is over 20000 nM; in experiment [2], 187 nM.

With `CC(=O)N1CCC[C@]12CC=CCCCC1(CCCC=CCCCOC(=O)N3CC[C@@](C(=O)N[C@@H](Cc4ccsc4)C(=O)N[C@@H](Cc4csc5ccccc45)C(=O)N[C@@H](CC(C)C)C(N)=O)(C3)NC(=O)[C@H](CC(C)C)NC(=O)[C@H](Cc3ccccc3)NC(=O)[C@H](C)NC(=O)[C@H](C)NC(=O)[C@H](CN(CC(=O)O)CC(F)(F)F)NC(=O)[C@H](CC(=O)O)NC1=O)NC(=O)[C@H](CC(C)(C)C)NC(=O)[C@H](CC(=O)O)NC2=O` (stereo partly drawn) [I-1748, Ac-PL3-Asp-Npg-B5-Asp-TfeGA-Ala-Ala-Phe-Leu-PyrS2-3Thi-BztA-Leu-NH2], the IC50 turned out to be 20200 nM in experiment [1] and 141 nM in experiment [2].

Consider `CC(=O)N1CCC[C@]12CC=CCCCC1(CCCC=CCCCOC(=O)N3CC[C@@](C(=O)N[C@@H](Cc4ccsc4)C(=O)N[C@@H](Cc4csc5ccccc45)C(=O)N[C@@H](Cc4ccccc4)C(N)=O)(C3)NC(=O)[C@H](CC(C)C)NC(=O)[C@H](Cc3ccccc3)NC(=O)[C@H](C)NC(=O)[C@H](C)NC(=O)[C@H](CN(CC(=O)O)CC(F)(F)F)NC(=O)[C@H](CC(=O)O)NC1=O)NC(=O)[C@H](CC(C)(C)C)NC(=O)[C@H](CC(=O)O)NC2=O` (stereo partly drawn) [I-1750, Ac-PL3-Asp-Npg-B5-Asp-TfeGA-Ala-Ala-Phe-Leu-PyrS2-3Thi-BztA-Phe-NH2], for which the IC50 is 23700 nM in experiment [1] and 104 nM in experiment [2].

Take `CC(=O)N1CCC[C@]12CC=CCCCC1(CCCC=CCCCOC(=O)N3CC[C@@](C(=O)N[C@@H](Cc4ccsc4)C(=O)N[C@@H](Cc4csc5ccccc45)C(=O)N[C@@H](CC(C)C)C(N)=O)(C3)NC(=O)[C@H](CC(C)C)NC(=O)[C@H](Cc3ccccc3)NC(=O)[C@H](C)NC(=O)[C@H](CCCCNC(C)C)NC(=O)[C@H](CN(CC(=O)O)CC(F)(F)F)NC(=O)[C@H](CC(=O)O)NC1=O)NC(=O)[C@H](CC(C)(C)C)NC(=O)[C@H](CC(=O)O)NC2=O` (stereo partly drawn) [I-1759, Ac-PL3-Asp-Npg-B5-Asp-TfeGA-iPrLys-Ala-Phe-Leu-PyrS2-3Thi-BztA-Leu-NH2]: the concentration for half-maximal inhibition (IC50) in experiment [1] was over 20000 nM; in experiment [2], 57 nM.

Turning to `CC(=O)N1CCC[C@]12CC=CCCCC1(CCCC=CCCCOC(=O)N3CC[C@@](C(=O)N[C@@H](Cc4ccsc4)C(=O)N[C@@H](Cc4csc5ccccc45)C(=O)N[C@@H](CC(C)C)C(N)=O)(C3)NC(=O)[C@H]([C@@H](C)O)NC(=O)[C@H](Cc3ccccc3)NC(=O)[C@H](C)NC(=O)[C@H](CCCCNC(C)C)NC(=O)[C@H](CN(CC(=O)O)CC(F)(F)F)NC(=O)[C@H](CC(=O)O)NC1=O)NC(=O)[C@H](CC(C)(C)C)NC(=O)[C@H](CC(=O)O)NC2=O` (stereo partly drawn) [I-1760, Ac-PL3-Asp-Npg-B5-Asp-TfeGA-iPrLys-Ala-Phe-Thr-PyrS2-3Thi-BztA-Leu-NH2], the values for the IC50 in experiment [1] and in experiment [2] were over 20000 nM and 32 nM, respectively.

Regarding `CC(=O)N1CCC[C@]12CC=CCCCC1(CCCC=CCCCOC(=O)N3CC[C@@](C(=O)N[C@@H](Cc4ccsc4)C(=O)N[C@@H](Cc4csc5ccccc45)C(=O)N[C@@H](Cc4ccccc4)C(N)=O)(C3)NC(=O)[C@H](CC(C)C)NC(=O)[C@H](Cc3ccccc3)NC(=O)[C@H](C)NC(=O)[C@H](CCCCNC(C)C)NC(=O)[C@H](CN(CC(=O)O)CC(F)(F)F)NC(=O)[C@H](CC(=O)O)NC1=O)NC(=O)[C@H](CC(C)(C)C)NC(=O)[C@H](CC(=O)O)NC2=O` (stereo partly drawn) [I-1761, Ac-PL3-Asp-Npg-B5-Asp-TfeGA-iPrLys-Ala-Phe-Leu-PyrS2-3Thi-BztA-Phe-NH2], the half-inhibitory concentration (IC50) was over 20000 nM in experiment [1] and 39 nM in experiment [2].

For `CC(=O)N1CCC[C@]12CC=CCCCC1(CCCC=CCCCOC(=O)N3CC[C@@](C(=O)N[C@@H](Cc4ccsc4)C(=O)N[C@@H](Cc4csc5ccccc45)C(=O)N[C@@H](Cc4ccccc4)C(N)=O)(C3)NC(=O)[C@H]([C@@H](C)O)NC(=O)[C@H](Cc3ccccc3)NC(=O)[C@H](C)NC(=O)[C@H](CCCCNC(C)C)NC(=O)[C@H](CN(CC(=O)O)CC(F)(F)F)NC(=O)[C@H](CC(=O)O)NC1=O)NC(=O)[C@H](CC(C)(C)C)NC(=O)[C@H](CC(=O)O)NC2=O` (stereo partly drawn) [I-1762, Ac-PL3-Asp-Npg-B5-Asp-TfeGA-iPrLys-Ala-Phe-Thr-PyrS2-3Thi-BztA-Phe-NH2], the values for the IC50 in experiment [1] and in experiment [2] were over 20000 nM and 13 nM, respectively.

As to `CC(=O)N1CCC[C@]12CC=CCCCC1(CCCC=CCCCOC(=O)N3CC[C@@](C(=O)N[C@@H](Cc4ccsc4)C(=O)N[C@@H](Cc4csc5ccccc45)C(=O)N[C@H](C(N)=O)C(C)C)(C3)NC(=O)[C@H](CC(C)C)NC(=O)[C@H](Cc3ccccc3)NC(=O)[C@H](C)NC(=O)[C@H](CCCCNC(C)C)NC(=O)[C@H](CN(CC(=O)O)CC(F)(F)F)NC(=O)[C@H](CC(=O)O)NC1=O)NC(=O)[C@H](CC(C)(C)C)NC(=O)[C@H](CC(=O)O)NC2=O` (stereo partly drawn) [I-1763, Ac-PL3-Asp-Npg-B5-Asp-TfeGA-iPrLys-Ala-Phe-Leu-PyrS2-3Thi-BztA-Val-NH2], the half-maximal inhibitory concentration (IC50) is over 20000 nM in experiment [1] and 52 nM in experiment [2].

`CC(=O)N1CCC[C@]12CC=CCCCC1(CCCC=CCCCOC(=O)N3CC[C@@](C(=O)N[C@@H](Cc4ccsc4)C(=O)N[C@@H](Cc4csc5ccccc45)C(=O)N[C@H](C(N)=O)C(C)C)(C3)NC(=O)[C@H]([C@@H](C)O)NC(=O)[C@H](Cc3ccccc3)NC(=O)[C@H](C)NC(=O)[C@H](CCCCNC(C)C)NC(=O)[C@H](CN(CC(=O)O)CC(F)(F)F)NC(=O)[C@H](CC(=O)O)NC1=O)NC(=O)[C@H](CC(C)(C)C)NC(=O)[C@H](CC(=O)O)NC2=O` (stereo partly drawn) [I-1764, Ac-PL3-Asp-Npg-B5-Asp-TfeGA-iPrLys-Ala-Phe-Thr-PyrS2-3Thi-BztA-Val-NH2]: the 50% inhibitory concentration (IC50) is over 20000 nM in experiment [1] and 23 nM in experiment [2].

With `CC(=O)N1CCC[C@]12CCCCCCC1(CCCCCCCCOC(=O)N3CC[C@@](C(=O)N[C@@H](Cc4ccsc4)C(=O)N[C@@H](Cc4csc5ccccc45)C(=O)N[C@@H](Cc4ccccc4)C(N)=O)(C3)NC(=O)[C@H]([C@@H](C)O)NC(=O)[C@H](Cc3ccccc3)NC(=O)[C@H](C)NC(=O)[C@H](CCCCNC(C)C)NC(=O)[C@H](CN(CC(=O)O)CC(F)(F)F)NC(=O)[C@H](CC(=O)O)NC1=O)NC(=O)[C@H](CC(C)(C)C)NC(=O)[C@H](CC(=O)O)NC2=O` (stereo partly drawn) [I-1768, Ac-PL3-Asp-Npg-B5-Asp-TfeGA-iPrLys-Ala-Phe-Thr-PyrS2-3Thi-BztA-Phe-NH2], the half-inhibitory concentration (IC50) in experiment [1] is over 20000 nM; in experiment [2], 69 nM.

Usually IC50 stands for the concentration needed to halve the response being measured.
